Reference: BindingDB's records for doi:10.1016/j.bmcl.2006.10.030 (Paris-Sud University, 2007)

The compounds below were run against Triosephosphate isomerase (Homo sapiens, UniProt P60174) (assay: Inhibition of triosephosphate isomerase).
Chain of Triosephosphate isomerase (P60174 whole entry): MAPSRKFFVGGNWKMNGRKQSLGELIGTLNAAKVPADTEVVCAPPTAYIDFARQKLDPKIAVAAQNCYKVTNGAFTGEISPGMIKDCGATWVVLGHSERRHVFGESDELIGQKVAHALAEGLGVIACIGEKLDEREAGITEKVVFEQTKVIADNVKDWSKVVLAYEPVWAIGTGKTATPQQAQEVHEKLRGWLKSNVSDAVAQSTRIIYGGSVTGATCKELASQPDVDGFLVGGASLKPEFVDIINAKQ
`N=C(COP(=O)(O)O)NO` [Phosphoric acid mono-(N-hydroxycarbamimidoylmethyl) ester] showed a Ki of 4.5 µM. In the case of `O=C(CCP(=O)(O)O)NO` [hydrogen 3-(hydroxyamino)-3-oxopropylphosphonate], the Ki is reported as 160 µM. Work on `O=C(COP(=O)(O)O)NO` [2-(hydroxyamino)-2-oxoethyl dihydrogen phosphate] yielded a Ki of 3 µM. In the case of `NC(CC(=O)NO)P(=O)(O)O` (stereo not given) [hydrogen [1-azaniumyl-2-(hydroxycarbamoyl)ethyl]phosphonate], the Ki is reported as > 500 µM. `NNC(=O)COP(=O)(O)O` [Phosphoric acid monohydrazinocarbonylmethyl ester] showed a Ki of 111 µM.
